Laboratory results: patent publication US20210205271A1 (The Johns Hopkins University, priority 2018, published 2021)
Where two headings read alike, the source gives them in different places.

Assays:
[1] = MBZ plasma exposure in male beagle dogs after oral administration; assay type: in vivo, dog; conditions: PO […] MBZ equivalent
[2] = dog, in vivo, iv, 0.3 mg/kg
[3] = mouse, in vivo, po, 30 mg/kg
Description: Brain concentrations of MBZ were also measured in tandem.
(§1) All pharmacokinetic studies in mice were conducted according to protocols approved by the Animal Care and Use Committee at Johns Hopkins University. Male CD-1 mice between 25 and 30 g were obtained from Harlan, and maintained on a 12-h light-dark cycle with ad libitum access to food and water. […] The mice were sacrificed at specified time points post drug administration. For collection of plasma and brain tissue, animals were euthanized with CO2, and blood samples were collected in heparinized microtubes by cardiac puncture. Tissues were dissected and immediately flash frozen (−80° C.). Blood samples were spun at 2,000×g for 15 min, plasma was removed and stored at −80° C. until LC/MS analysis. Prior to extraction, frozen samples were thawed on ice. The calibration curves were developed using plasma and brain from naïve animals as a matrix. Plasma samples (50 μL), were processed using a single liquid extraction method by addition of 3004 of acetonitrile as with internal standard (losartan: 0.5 μM), followed by vortex mixing for 30 sec and then centrifugation at 10,000×g for 10 min at 4° C. For brain tissue, homogenized samples were vortex mixed and centrifuged as above. A 104 aliquot of supernatant was diluted with 35 µL of acetonitrile and mixed with 50 μL water containing 0.5 μM losartan as internal standard. Extracts were centrifuged at 10,000×g for 10 min at 4° C. Supernatants were transferred to 2504 polypropylene autosampler vials sealed with a Teflon cap. A volume of 34 was injected onto the ultra-performance liquid chromatography (UPLC) instrument for quantitative analysis by LC-MS/MS.

[4] = mouse, in vivo, iv, 1.5 mg/kg
Description: as §1

[5] = rats; cited from earlier work

Q: Which results are given for Mebendazole [MBZ-C]?
A: % F (oral bioavailability of MBZ) [1]: 11%; Tmax (MBZ, plasma) [1]: 2 h; AUC0-t [2]: 0.9 µM·h; Vd [2]: 1.3 L/kg; AUC0-t (MBZ, brain) [3]: 13.1 ± 4.2 nmol·h/g; AUC0-t (MBZ, plasma) [3]: 12.9 µM·h; AUC0-t [4]: 2.7 µM·h; Cmax [4]: 5.3 µM; Tmax [4]: 4.98 min; Vd [4]: 1.4 L/kg; time of Cmax post-dose [4]: 5 min

Q: With `COC(=O)NC(=S)Nc1cc(C(=O)c2ccccc2)ccc1N` [4-amino-3-(3′-methoxycarbonyl-2′-thioureido)benzophonone] as the compound, how does the “fold improvement in plasma exposure versus equimolar oral MBZ” value [5] read?
A: 2 fold
